Data on 63 compounds can be found in patent publication US10150728B2, “Alkylene derivatives” (Shionogi & Co., Ltd., priority 2013, dated 2018).

recombinant human ACC2, sequence (O00763 27-2458): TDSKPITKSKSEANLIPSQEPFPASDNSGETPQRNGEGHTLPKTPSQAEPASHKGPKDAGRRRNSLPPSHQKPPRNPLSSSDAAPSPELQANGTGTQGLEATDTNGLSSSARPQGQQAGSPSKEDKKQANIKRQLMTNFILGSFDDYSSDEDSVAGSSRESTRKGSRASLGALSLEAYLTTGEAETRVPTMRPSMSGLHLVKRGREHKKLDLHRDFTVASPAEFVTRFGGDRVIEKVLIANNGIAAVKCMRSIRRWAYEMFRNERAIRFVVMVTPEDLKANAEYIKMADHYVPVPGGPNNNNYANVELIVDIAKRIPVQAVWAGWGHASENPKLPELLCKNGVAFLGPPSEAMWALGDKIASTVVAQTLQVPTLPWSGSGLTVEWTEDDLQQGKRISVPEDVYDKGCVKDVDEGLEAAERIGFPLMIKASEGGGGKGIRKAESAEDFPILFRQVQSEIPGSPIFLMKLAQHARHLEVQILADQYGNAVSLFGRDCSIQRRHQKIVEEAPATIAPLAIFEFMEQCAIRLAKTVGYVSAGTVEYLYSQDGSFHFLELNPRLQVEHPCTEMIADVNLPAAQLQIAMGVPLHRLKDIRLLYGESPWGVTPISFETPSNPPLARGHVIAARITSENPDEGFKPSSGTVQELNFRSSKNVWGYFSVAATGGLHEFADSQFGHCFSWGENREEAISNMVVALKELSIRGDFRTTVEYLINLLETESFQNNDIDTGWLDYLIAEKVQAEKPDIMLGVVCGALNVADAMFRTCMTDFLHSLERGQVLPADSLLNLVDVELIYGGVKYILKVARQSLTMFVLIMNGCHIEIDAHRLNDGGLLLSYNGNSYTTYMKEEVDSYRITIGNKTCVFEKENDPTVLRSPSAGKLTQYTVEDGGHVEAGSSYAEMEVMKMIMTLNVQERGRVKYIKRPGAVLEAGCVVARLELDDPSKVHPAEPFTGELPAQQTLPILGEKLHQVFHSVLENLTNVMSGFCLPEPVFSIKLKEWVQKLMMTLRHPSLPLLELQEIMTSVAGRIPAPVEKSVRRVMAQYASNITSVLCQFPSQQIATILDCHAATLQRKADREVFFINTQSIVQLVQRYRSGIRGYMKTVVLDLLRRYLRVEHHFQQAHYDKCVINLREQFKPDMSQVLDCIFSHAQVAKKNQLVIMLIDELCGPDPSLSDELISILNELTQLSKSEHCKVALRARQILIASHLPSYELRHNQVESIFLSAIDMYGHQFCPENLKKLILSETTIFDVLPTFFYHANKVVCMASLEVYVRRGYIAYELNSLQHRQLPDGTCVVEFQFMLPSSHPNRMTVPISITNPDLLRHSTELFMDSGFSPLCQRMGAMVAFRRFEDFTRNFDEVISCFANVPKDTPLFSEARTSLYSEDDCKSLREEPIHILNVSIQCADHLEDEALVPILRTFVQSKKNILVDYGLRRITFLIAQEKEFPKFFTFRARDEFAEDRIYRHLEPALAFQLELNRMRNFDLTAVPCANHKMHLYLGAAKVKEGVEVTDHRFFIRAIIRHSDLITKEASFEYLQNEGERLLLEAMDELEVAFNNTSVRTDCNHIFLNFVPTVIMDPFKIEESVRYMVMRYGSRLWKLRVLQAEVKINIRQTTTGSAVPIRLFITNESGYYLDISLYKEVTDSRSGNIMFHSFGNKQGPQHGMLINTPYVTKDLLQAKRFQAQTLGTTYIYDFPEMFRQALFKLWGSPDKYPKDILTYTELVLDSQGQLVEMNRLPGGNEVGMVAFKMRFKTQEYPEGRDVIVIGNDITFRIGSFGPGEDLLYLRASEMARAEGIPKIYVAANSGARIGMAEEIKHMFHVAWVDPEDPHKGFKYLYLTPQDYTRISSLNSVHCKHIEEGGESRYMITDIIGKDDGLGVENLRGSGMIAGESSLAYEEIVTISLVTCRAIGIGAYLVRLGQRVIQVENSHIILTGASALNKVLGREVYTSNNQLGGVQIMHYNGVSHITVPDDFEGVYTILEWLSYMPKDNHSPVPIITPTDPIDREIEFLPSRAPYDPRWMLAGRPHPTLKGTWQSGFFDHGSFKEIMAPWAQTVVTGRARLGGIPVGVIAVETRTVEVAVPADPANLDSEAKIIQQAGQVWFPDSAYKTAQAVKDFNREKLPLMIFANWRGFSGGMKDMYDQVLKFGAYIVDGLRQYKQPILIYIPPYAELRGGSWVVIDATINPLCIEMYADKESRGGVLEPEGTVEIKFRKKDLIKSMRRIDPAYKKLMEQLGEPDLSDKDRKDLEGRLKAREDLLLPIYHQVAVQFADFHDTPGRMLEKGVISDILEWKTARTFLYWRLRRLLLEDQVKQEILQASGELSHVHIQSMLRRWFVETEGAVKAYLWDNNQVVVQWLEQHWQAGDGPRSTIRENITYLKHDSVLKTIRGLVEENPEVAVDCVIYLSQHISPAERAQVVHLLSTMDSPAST

For the experiment, the target named is recombinant human ACC2 (Homo sapiens (Human), UniProt O00763). The experiment can be described thus: Measurement of inhibitory activity on human ACC2 (MALDI-TOF MS, acetyl CoA to malonyl CoA conversion). Format: biochemical. The following applies: Tables 155-159. The method in brief:
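His-tagged human ACC2 (residues 27–2458) from baculovirus-infected Sf-9 cells was preincubated 1 h in pH 7.4 HEPES-KOH buffer with MgCl2, 6-10 mM potassium citrate, glutathione and BSA. Substrate solution held 1 mM ATP, 0.8 mM acetyl CoA and 25-50 mM bicarbonate. After 1–3 h at room temperature, malonyl CoA/(malonyl+acetyl CoA) was read by negative-mode MALDI-TOF MS; citrate, bicarbonate and time varied by enzyme lot.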
Take `CC(=O)N[C@@H](C)CO[C@H]1CC[C@H](Oc2cc3sc(O[C@@H]4CCOC4)nc3cn2)CC1` [Compound I-260]: the IC50 amounted to 102 nM.
In the case of `CC(=O)N[C@@H](C)CO[C@H]1CC[C@H](Oc2cc3sc(OCC4(C)CC4)nc3cn2)CC1` [Compound I-261] it was 17 nM; in that of `CC(=O)N[C@@H](C)CO[C@H]1CC[C@H](Oc2cc3sc(OC[C@@H](C)F)nc3cn2)CC1` [Compound I-262], 53 nM.
In the case of `CC(=O)N[C@@H](C)CO[C@H]1CC[C@H](Oc2cc3sc(OCC(C)(C)C#N)nc3cn2)CC1` [Compound I-263] it was 862 nM; in that of `CC(=O)N[C@@H](C)CO[C@H]1CC[C@H](Oc2cc3sc(OCC4(C#N)CC4)nc3cn2)CC1` [Compound I-264], 372 nM.
For the compound `CC(=O)N[C@@H](C)CO[C@H]1C[C@H](COc2ccc3nc(N4CCCCC4)sc3n2)C1` [Compound I-265], the IC50 is 16 nM.
`CC(=O)N[C@@H](C)CO[C@H]1C[C@H](COc2nc3sc(N4CCC4)nc3cc2F)C1` [Compound I-266]: the IC50 worked out at 36 nM.
In the case of `CC(=O)N[C@@H](C)CO[C@H]1C[C@H](COc2nc3sc(N4CC(F)C4)nc3cc2F)C1` [Compound I-267] it was 58 nM; in that of `CC(=O)N[C@@H](C)CO[C@H]1C[C@H](COc2nc3sc(N4CC(F)(F)C4)nc3cc2F)C1` [Compound I-268], 42 nM.
Turning to `CC(=O)N[C@@H](C)CO[C@H]1C[C@H](COc2ccc3nc(N4CCC4)sc3c2F)C1` [Compound I-269], the IC50 was 125 nM.
The value for `CC(=O)N[C@@H](C)CO[C@H]1C[C@H](COc2ccc3nc(N4CCCC4)sc3c2F)C1` [Compound I-270] was 116 nM.
The value for `CC(=O)N[C@@H](C)CO[C@H]1CC[C@H](Oc2cc3sc(O[C@H]4C[C@@H](C#N)C4)nc3cn2)CC1` [Compound I-271] was 83 nM.
Take `C[C@@H](CO[C@H]1CC[C@H](Oc2ncc3nc(OC4CC4)sc3c2F)CC1)NC(=O)CO` [Compound I-272]: the half-inhibitory concentration (IC50) was found to be 123 nM.
With `CC(=O)N[C@@H](C)CO[C@H]1CC[C@H](Oc2ncc3nc(OC4COC4)sc3c2F)CC1` [Compound I-273], the IC50 turned out to be 35 nM.
As for `CC(=O)N[C@@H](C)CO[C@H]1CC[C@H](Oc2ncc3nc(OCC4(F)COC4)sc3c2F)CC1` [Compound I-274], the IC50 came to 90 nM.
For the compound `CC(=O)N[C@@H](C)CO[C@H]1CC[C@H](Oc2ncc3nc(OCC4(C#N)CC4)sc3c2F)CC1` [Compound I-275], the IC50 is 156 nM.
In the case of `CC(=O)N[C@@H](C)CO[C@H]1CC[C@H](Oc2ncc3nc(O[C@H]4CCOC4)sc3c2F)CC1` [Compound I-276] it was 13 nM.
The value for `CC(=O)N[C@@H](C)CO[C@H]1CC[C@H](Oc2ncc3nc(O[C@@H]4CCOC4)sc3c2F)CC1` [Compound I-277] was 32 nM; that for `CC(=O)N[C@@H](C)CO[C@H]1CC[C@H](Oc2cc(C)c3nc(N4CC(F)(F)C4)sc3n2)CC1` [Compound I-278] was 87 nM; that for `CCOc1nc2c(C)cc(O[C@H]3CC[C@H](OC[C@H](C)NC(C)=O)CC3)nc2s1` [Compound I-279] was 8 nM.
In the case of `CO[C@H]1C[C@H](Oc2nc3ccc(OC[C@H]4C[C@H](OC[C@H](C)NC(C)=O)C4)nc3s2)C1` [Compound I-280], the IC50 was 79 nM.
In the case of `CO[C@H]1C[C@@H](Oc2nc3ccc(OC[C@H]4C[C@H](OC[C@H](C)NC(C)=O)C4)nc3s2)C1` [Compound I-281] it was 41 nM.
The value for `CC(=O)N[C@@H](C)CO[C@H]1C[C@H](COc2ccc3nc(N(C)CC#N)sc3n2)C1` [Compound I-282] was 892 nM.
In the case of `CC(=O)N[C@@H](C)CO[C@H]1C[C@H](COc2ccc3nc(O[C@@H]4CO[C@@H]5CCO[C@@H]54)sc3n2)C1` [Compound I-283] it was 984 nM.
In the case of `CC(=O)N[C@@H](C)CO[C@H]1C[C@H](COc2ccc3nc(N4CC5(CCC5)C4)sc3n2)C1` [Compound I-284], the IC50 amounted to 17 nM.
Take `C[C@@H](CO[C@H]1CC[C@H](Oc2ncc3nc(OC4CC4)sc3c2F)CC1)NC(N)=O` [Compound I-285]: the IC50 worked out at 38 nM.
In the case of `CC(=O)N[C@@H](C)CO[C@H]1C[C@H](COc2ccc3nc(N4CC(F)(F)C4)sc3c2F)C1` [Compound I-286] it was 125 nM.
In the case of `CC(=O)N[C@@H](C)CO[C@H]1C[C@H](COc2ccc3nc(N4CC[C@@H](F)C4)sc3n2)C1` [Compound I-287] it was 51 nM; in that of `CC(=O)N[C@@H](C)CO[C@H]1C[C@H](COc2ccc3nc(N4CCC(C#N)C4)sc3n2)C1` (stereo partly drawn) [Compound I-288], 759 nM; in that of `CC(=O)N[C@@H](C)CO[C@H]1C[C@H](COc2ccc3nc(N4CC[C@H](F)C4)sc3n2)C1` [Compound I-289], 110 nM.
The value for `C[C@@H](CO[C@H]1CC[C@H](Oc2cc3sc(OCC4CC4(F)F)nc3cn2)CC1)NC(=O)CO` (stereo partly drawn) [Compound I-290] was 82 nM; that for `C[C@@H](CO[C@H]1CC[C@H](Oc2cc3sc(OCC4CC4(F)F)nc3cn2)CC1)NC(N)=O` (stereo partly drawn) [Compound I-291] was 32 nM; that for `CC(=O)N[C@@H](C)CO[C@H]1C[C@](C)(COc2ccc3nc(OC4CC4)sc3n2)C1` [Compound I-292] was 52 nM.
Consider `CC(=O)N[C@@H](C)CO[C@H]1C[C@H](COc2ccc3nc(O[C@H]4C[C@H](O)C4)sc3n2)C1` [Compound I-293], for which the IC50 amounted to 171 nM.
The value for `CC(=O)N[C@@H](C)CO[C@H]1C[C@H](COc2ccc3nc(O[C@H]4C[C@@H](O)C4)sc3n2)C1` [Compound I-294] was 300 nM; that for `CC(=O)N[C@@H](C)CO[C@H]1C[C@H](COc2ccc3nc(O[C@H]4C[C@H](F)C4)sc3n2)C1` [Compound I-295] was 12 nM; that for `CC(=O)N[C@@H](C)CO[C@H]1C[C@H](COc2ccc3nc(O[C@H]4C[C@@H](F)C4)sc3n2)C1` [Compound I-296] was 6 nM.
In the case of `CC(=O)N[C@@H](C)CO[C@H]1C[C@](F)(COc2ccc3nc(OCC(F)F)sc3n2)C1` [Compound I-297], the IC50 was 42 nM.
In the case of `CC(=O)N[C@@H](C)CO[C@H]1C[C@](F)(COc2ccc3nc(OC4CC4)sc3n2)C1` [Compound I-298] it was 52 nM.
In the case of `CC(=O)N[C@@H](C)CO[C@H]1C[C@](F)(COc2ccc3nc(OC(C)C)sc3n2)C1` [Compound I-299] it was 26 nM.
In the case of `CC(=O)N[C@@H](C)CO[C@H]1C[C@H](COc2ccc3nc(OCC(C)(C)O)sc3n2)C1` [Compound I-300] it was 165 nM; in that of `CC(=O)N[C@@H](C)CO[C@H]1C[C@H](COc2ccc3nc(OC4CC(C#N)C4)sc3n2)C1` (stereo partly drawn) [Compound I-301], 37 nM; in that of `CC(=O)N[C@@H](C)CO[C@H]1C[C@H](COc2ccc3nc(OCC(C)(C)C#N)sc3n2)C1` [Compound I-302], 52 nM.
As to `CC(=O)N[C@@H](C)CO[C@H]1C[C@H](COc2ccc3nc(Oc4ccc(F)nc4)sc3n2)C1` [Compound I-303], the IC50 is 68 nM.
In the case of `CC(=O)N[C@@H](C)CO[C@H]1C[C@H](COc2ccc3nc(Oc4ccc(F)cn4)sc3n2)C1` [Compound I-304], the IC50 was 242 nM.
Take `CC(=O)N[C@@H](C)CO[C@H]1C[C@H](COc2ccc3nc(Oc4ccc(F)cc4)sc3n2)C1` [Compound I-305]: the half-inhibitory concentration (IC50) is 22 nM.
As for `CC(=O)N[C@@H](C)CO[C@H]1C[C@H](COc2ccc3nc(OC[C@@H](C)F)sc3n2)C1` [Compound I-306], the IC50 is 15 nM.
The value for `CC(=O)N[C@@H](C)CO[C@H]1C[C@H](COc2ccc3nc(OC4COC4)sc3n2)C1` [Compound I-307] was 43 nM.
On to `CC(=O)N[C@@H](C)CO[C@H]1C[C@H](COc2ccc3nc(OCC4CC4)sc3n2)C1` [Compound I-308], for which the IC50 stood at 6 nM.
In the case of `CC(=O)N[C@@H](C)CO[C@H]1C[C@H](COc2nccc(-c3ccc(F)cc3)c2F)C1` [Compound I-309] it was 24 nM; in that of `CC(=O)N[C@@H](C)CO[C@H]1C[C@H](COc2nccc(-c3ccc(F)cc3)c2Cl)C1` [Compound I-310], 34 nM.
With `CC(=O)N[C@@H](C)CO[C@H]1C[C@H](COc2nccc(-c3ncc(F)cn3)c2F)C1` [Compound I-311], the IC50 was determined as 106 nM.
In the case of `CC(=O)N[C@@H](C)CO[C@H]1C[C@H](COc2nccc(-c3ncc(OC(C)C)cn3)c2Cl)C1` [Compound I-312] it was 401 nM; in that of `CC(=O)N[C@@H](C)CO[C@H]1C[C@H](COc2nccc(-c3ccc(F)cc3)c2C)C1` [Compound I-313], 72 nM; in that of `CC(=O)N[C@@H](C)CO[C@H]1C[C@H](COc2nccc(OCC3CC3)c2Cl)C1` [Compound I-314], 25 nM.
In the case of `CC(=O)N[C@@H](C)CO[C@H]1C[C@H](COc2nccc(OCC(F)F)c2Cl)C1` [Compound I-315] it was 503 nM.
As for `CC(=O)N[C@@H](C)CO[C@H]1C[C@H](COc2nccc(OCC3CC3(F)F)c2Cl)C1` (stereo partly drawn) [Compound I-316], the IC50 was found to be 74 nM.
In the case of `CC(=O)N[C@@H](C)CO[C@H]1C[C@H](COc2nccc(C3=CCCCC3)c2Cl)C1` [Compound I-317] it was 14 nM; in that of `CC(=O)N[C@@H](C)CO[C@H]1C[C@H](COc2nccc3ccccc23)C1` [Compound I-318], 49 nM.
With `CC(=O)N[C@@H](C)CO[C@H]1C[C@H](COc2nccc(-c3ccc(F)cc3)c2C#N)C1` [Compound I-319], the IC50 was 281 nM.
In the case of `CC(=O)N[C@@H](C)CO[C@H]1C[C@H](COc2nccc(-c3ccc(C(F)(F)F)cc3)c2Cl)C1` [Compound I-320] it was 67 nM; in that of `COc1cnc(-c2ccnc(OC[C@H]3C[C@H](OC[C@H](C)NC(C)=O)C3)c2Cl)nc1` [Compound I-321], 167 nM.
In the case of `CC(=O)N[C@@H](C)CO[C@H]1C[C@H](COc2nccc(-c3ncc(C(F)(F)F)cn3)c2Cl)C1` [Compound I-322] it was 63 nM.

The term IC50 denotes the midpoint of a concentration-inhibition curve.
